Data reported in patent US4091097A, “Treatment of elevated histamine and uric acid levels” (Zaidan Hojin Biseibutsu Kagaku Kenkyu Kai, priority 1973, dated 1978).
Read-outs that look alike come from different tables or passages of the source.

Key:
[1] = system: acetic acid-induced stretching movements; assay: Analgesic Activity in mice (acetic acid stretching); assay type: in vivo, mice (DDY Strain); details: control (no drug) 53
Description: Male mice of the DDY Strain having mean body weight of 20 g. were divided to the groups of 10 animals each, to which compounds of this invention or aminopyrine in saline solution were administered intraperitoneally (i.p.). The dosage was 200, 50 or 12.5 mg./kg. Then 30 minutes later, 0.2 ml. per 20 g. body weight of 0.7% acetic acid in saline was injected intraperitoneally and the number of characteristic stretching movements counted for 20 minute period and compared with a control group receiving no analgesic.

[2] = system: pyrexia induced by TTG No. 2; assay: Antipyretic Activity in Pyrexia-Induced Rabbits; assay type: in vivo, Japanese rabbits; details: 200 mg./kg. oral
Description: Common white male Japanese rabbits, 2.0 - 3.0 kg. body weight, were injected through the ear vein with 20 μg./kg. of a pyrexia inducer TTG No. 2, purified polysaccharide preparation obtained from Pseudomonas aeruginosa (marketed by Fujisawa Pharmaceutical Company, Japan), and the body temperature was monitored with a rectal thermister-type thermometer. Three hours prior to the TTG injection four rabbits in each experimental section orally received the test drug in the dose of 200 mg./kg. One group received aspirin in a dose of 100 mg./kg and a control group no drug.

histidine decarboxylase = biological target: T1, histidine decarboxylase (Rattus norvegicus, UniProt P16453); assay: Inhibition of Histidine Decarboxylase (14C-histamine formation); assay type: biochemical, fetal rats
T1 construct: a crude enzyme preparation obtained from fetal rats; from tissue
T1 sequence (P16453 1-656): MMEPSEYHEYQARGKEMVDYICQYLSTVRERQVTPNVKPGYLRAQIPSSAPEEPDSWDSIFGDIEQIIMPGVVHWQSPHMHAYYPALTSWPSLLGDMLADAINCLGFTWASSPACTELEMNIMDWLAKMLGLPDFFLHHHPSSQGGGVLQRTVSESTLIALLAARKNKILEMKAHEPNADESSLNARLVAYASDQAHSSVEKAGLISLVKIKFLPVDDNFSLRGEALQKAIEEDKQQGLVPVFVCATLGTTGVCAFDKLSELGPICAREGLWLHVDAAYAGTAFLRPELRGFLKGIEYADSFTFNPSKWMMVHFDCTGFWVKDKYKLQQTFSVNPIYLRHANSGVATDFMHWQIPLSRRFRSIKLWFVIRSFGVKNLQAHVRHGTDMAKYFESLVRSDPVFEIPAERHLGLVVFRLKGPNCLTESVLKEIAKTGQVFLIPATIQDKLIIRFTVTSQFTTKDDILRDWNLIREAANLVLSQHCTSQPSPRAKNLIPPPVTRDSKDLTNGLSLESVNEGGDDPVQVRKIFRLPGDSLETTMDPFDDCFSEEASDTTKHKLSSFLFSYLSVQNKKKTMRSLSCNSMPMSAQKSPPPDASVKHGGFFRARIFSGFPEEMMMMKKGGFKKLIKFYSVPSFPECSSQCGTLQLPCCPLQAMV
Description: After two hours of incubation at 37° C., the histamine 2-^14 C formed was collected on an ion exchange resin ("Amberlite" CG-50, ammonia type) from which, after washing with water, the histamine was liberated in 1N aqueous ammonia solution and radioactivity was measured.

mice and rats = details: in vivo
Description: The acute toxicity was determined for oral and intraperitoneal administration with mice and rats (6 mice and 2 rats in one dose group), and the LD50 value, i.e., the single application dose killing 50% of the test animals, was estimated.

[3] = 2 hrs. after TTG, control (no drug) 1.2
[4] = 4 hrs. after TTG, control (no drug) 1.6
[5] = pH 6.8, two hours at 37° C., read-out: Histidine Decarboxylase Inhibition ID50

IC50 (histidine decarboxylase; [5])	SMILES	Analgesic Activity: Stretching Count (20 minutes) ([1]; 50 mg./kg. i.p.)	Analgesic Activity: Stretching Count (20 minutes) ([1]; 200 mg./kg. i.p.)	Antipyretic Activity: Elevation of Body Temperature [2, 3]	Antipyretic Activity: Elevation of Body Temperature [2, 4]	IC50 (histidine decarboxylase)	comparative toxicity (mice and rats)
0.23 µM	O=C(Nc1cc(F)c(O)c(Cl)c1)c1ccccc1O [Compound 13]						
0.81 µM	CCc1cc(NC(=O)c2ccc(O)cc2O)cc(F)c1OC [Compound 16]						
0.46 µM	CCc1ccc(C(=O)Nc2cc(Br)c(O)c(CC)c2)c(O)c1 [Compound 17]						
0.71 µM	CCc1ccc(O)c(C(=O)Nc2cc(Br)c(O)c(CC)c2)c1 [Compound 18]						
0.5 µM	CCOc1ccc(NC(=O)c2ccc(F)cc2O)cc1Cl [Compound 21]						
0.5 µM	O=C(Nc1cc(Cl)c(O)c(C(=O)O)c1)c1cc(O)ccc1O [Compound 23]						
0.69 µM	COc1c(F)cc(NC(=O)c2cc(Cl)ccc2O)cc1Cl [Compound 26]						
0.79 µM	CCc1cc(NC(=O)c2ccc(C)cc2O)cc(C(=O)OC)c1O [Compound 28]						
0.98 µM	CCc1cc(NC(=O)c2cc(C)ccc2O)cc(C(=O)OC)c1O [Compound 29]						
0.017 µM	CC(C)CC(=O)Oc1ccccc1C(=O)Nc1cc(Cl)c(OC(=O)CC(C)C)c(Cl)c1 [Compound 31]	13	4	0.6 °C	0.5 °C		
0.39 µM	CC(=O)Oc1cc(O)ccc1C(=O)Nc1cc(C)c(OC(C)=O)c(Cl)c1 [Compound 34]						
0.6 µM	CC(=O)Oc1ccc(O)cc1C(=O)Nc1cc(C)c(OC(C)=O)c(Cl)c1 [Compound 35]						
0.49 µM	CCC(=O)Oc1ccc(NC(=O)c2ccc(O)cc2OC(=O)CC)cc1Br [Compound 36]						
0.42 µM	CC(=O)Oc1cc(F)ccc1C(=O)Nc1cc(C)c(OC(C)=O)c(Br)c1 [Compound 37]						
0.2 µM	CCC(=O)Oc1ccccc1C(=O)Nc1cc(Cl)c(N)c(Cl)c1 [Compound 38]						
0.19 µM	CC(=O)Oc1ccc(C(=O)Nc2cc(Cl)c(O)c(Cl)c2)c(OC(C)=O)c1 [Compound 39]						
0.31 µM	CC(=O)Oc1ccc(OC(C)=O)c(C(=O)Nc2cc(Cl)c(O)c(Cl)c2)c1 [Compound 40]						
0.32 µM	CCOC(=O)c1cc(NC(=O)c2ccccc2OC(=O)c2ccccc2)cc(Cl)c1O [Compound 41]						

The remaining lines, values behind:

SMILES	IC50 (histidine decarboxylase; [5])	Analgesic Activity: Stretching Count (20 minutes) ([1]; 50 mg./kg. i.p.)	Analgesic Activity: Stretching Count (20 minutes) ([1]; 200 mg./kg. i.p.)	Antipyretic Activity: Elevation of Body Temperature [2, 3]	Antipyretic Activity: Elevation of Body Temperature [2, 4]	IC50 (histidine decarboxylase)	comparative toxicity (mice and rats)
Cc1c(N(C)C)c(=O)n(-c2ccccc2)n1C [Aminopyrine, reference compound]		8	2	0.4 °C	0.3 °C		
O=C(Nc1ccc(O)c(Cl)c1)c1ccccc1O [Compound 2]	2.5 µM	30	12	0.6 °C	0.5 °C		
O=C(Nc1cc(Br)c(O)c(Br)c1)c1ccccc1O [Compound 3]		17	6	0.6 °C	0.5 °C	0.023 µM	comparatively more toxic than the others
O=C(Nc1cc(Cl)c(O)c(Cl)c1)c1ccc(O)cc1O [Compound 4]	0.028 µM	13	6	0.5 °C	0.4 °C		
O=C(Nc1ccc(O)c(Br)c1)c1ccc(O)cc1O [Compound 5]	0.03 µM	14	6	0.5 °C	0.4 °C		comparatively more toxic than the others
O=C(Nc1cc(Br)c(O)c(C(=O)O)c1)c1ccccc1O [Compound 6]	0.26 µM	25	12	0.5 °C	0.5 °C		comparatively more toxic than the others
O=C(Nc1cc(Cl)c(O)c(C(=O)O)c1)c1ccccc1O [Compound 7]	0.11 µM	40	14	0.6 °C	0.5 °C		
Cc1ccc(C(=O)Nc2cc(Cl)c(O)c(Cl)c2)c(O)c1 [Compound 8]		40	21	0.6 °C	0.5 °C	0.096 µM	
O=C(Nc1cc(Cl)c(O)c(Cl)c1)c1ccc(F)cc1O [Compound 9]	0.089 µM	35	20	0.6 °C	0.6 °C		
O=C(Nc1cc(Cl)c(O)c(Cl)c1)c1cc(F)ccc1O [Compound 10]	0.23 µM	35	20	0.6 °C	0.5 °C		
COc1c(Cl)cc(NC(=O)c2ccccc2O)cc1Cl [Compound 11]	0.21 µM						
Cc1cc(NC(=O)c2ccccc2O)cc(Cl)c1O [Compound 12]	0.12 µM						
CCOc1c(Cl)cc(NC(=O)c2ccc(O)cc2O)cc1Br [Compound 15]	0.31 µM						comparatively more toxic than the others
Cc1cc(NC(=O)c2ccc(Br)cc2O)cc(C(=O)O)c1O [Compound 19]	0.33 µM						comparatively more toxic than the others
O=C(Nc1ccc(O)c(Cl)c1)c1cc(Br)ccc1O [Compound 20]						0.58 µM	comparatively more toxic than the others
Cc1ccc(C(=O)Nc2cc(Br)c(O)c(Br)c2)c(O)c1 [Compound 22]						0.8 µM	comparatively more toxic than the others
Nc1c(Cl)cc(NC(=O)c2ccccc2O)cc1Cl [Compound 24]	0.14 µM						comparatively more toxic than the others
CC(=O)Oc1ccccc1C(=O)Nc1cc(Cl)c(OC(C)=O)c(Cl)c1 [Compound 30]	0.024 µM	14	4	0.5 °C	0.5 °C		
CCCC(=O)Oc1ccc(C(=O)Nc2cc(Cl)c(N)c(C(=O)OC)c2)c(OC(=O)CCC)c1 [Compound 42]	0.51 µM						comparatively more toxic than the others
CCC(=O)Oc1ccc(OC(=O)CC)c(C(=O)Nc2cc(Cl)c(N)c(C(=O)OC)c2)c1 [Compound 43]	0.53 µM						comparatively more toxic than the others
CCOC(=O)c1cc(NC(=O)c2ccccc2OC(C)=O)cc(Cl)c1O [Compound 44]	0.23 µM						
